According to publication PMC7377239, “Cardiovascular Effects of Polychlorinated Biphenyls and Their Major Metabolites” (Environmental Health Perspectives, 2020):
Counter-ions that a name gives are not always drawn. Like-named read-outs stand apart in the source and are kept apart here.

Columns and labels:
[1] = system: iCell endothelial cells (human iPSC-derived ECs); test: High-content imaging cytotoxicity in iCell endothelial cells, 24 h; assay type: cell-based; conditions: Homo sapiens, Endothelial cell, 24 hr; for viability at 0.1 µM / activity at 0.1 µM: 0.10 µM
Outline: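 Readouts were vehicle-normalised and fitted to a four-parameter logistic model. POD was set at one SD beyond 0.5% DMSO control means, and 100 µM was assigned when no response was seen. Cells were monolayers of iCell endothelial cells imaged after 24 h compound exposure using nuclear, mitochondrial and calcein dyes.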

[2] = system: iCell endothelial cells (human iPSC-derived ECs); test: Tube formation (tubulogenesis) assay in iCell endothelial cells, 18 h; assay type: cell-based; conditions: Homo sapiens, Endothelial cell, 18 hr; for activity at 0.1 µM: 0.10 µM
Outline: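 Tube formation was measured by calcein AM imaging after overnight compound exposure (37°C, 0.5% DMSO vehicle) of human iPSC-derived ECs, 7,500/well, on reduced-growth-factor Geltrex in starvation medium. Vehicle-normalized data fitted to four-parameter logistic; POD set at one vehicle SD; without response, 100 μM taken as NOAEL.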

[3] = iPSC-EC, 0.00 µM control = 100.00, read-out: endo.cyto.24hr
[4] = iPSC-EC, 0.00 µM control = 100.00, read-out: endo.mito.24hr
[5] = iPSC-EC, 0.00 µM control = 100.00, read-out: endo.mitoint.24hr
[6] = iPSC-EC, 0.00 µM control = 100.00, read-out: endo.nma.24hr
[7] = iPSC-EC, 0.00 µM control = 100.00, read-out: endo.tc.24hrs
[8] = iPSC-EC tube formation, 0.00 µM control = 100.00, read-out: endo.mtl.18hr
[9] = iPSC-EC tube formation, 0.00 µM control = 100.00, read-out: endo.tlps.18hr
[10] = iPSC-EC tube formation, 0.00 µM control = 100.00, read-out: endo.tta.18hr
[11] = iPSC-EC tube formation, 0.00 µM control = 100.00, read-out: endo.ttl.18hr

Compound `O=S(=O)(O)Oc1cc(-c2ccccc2)ccc1Cl` [3-yl PCB 3 sulfate] has a viability at 0.01 µM [1, 3] of 93.7%, an activity at 0.01 µM [1, 4] of 93.8% and an activity at 0.01 µM [1, 5] of 120%. The activity at 0.01 µM [1, 6] was 104%, the viability at 0.01 µM [1, 7] was 93.7% and the viability at 0.1 µM [1, 3] was 93%. The activity at 0.1 µM [1, 4] was 93.3%, the activity at 0.1 µM [1, 5] was 105% and the activity at 0.1 µM [1, 6] was 104%. The viability at 0.1 µM [1, 7] was 93%, the viability at 1 µM [1, 3] was 102% and the activity at 1 µM [1, 4] was 103%. It also gave an activity at 1 µM [1, 5] of 104%, an activity at 1 µM [1, 6] of 97.9% and a viability at 1 µM [1, 7] of 102%. The viability at 10 µM [1, 3] was 96.5%, the activity at 10 µM [1, 4] was 96.5% and the activity at 10 µM [1, 5] was 104%. The activity at 10 µM [1, 6] was 99.6%, the viability at 10 µM [1, 7] was 96.5% and the viability at 100 µM [1, 3] was 96.6%. For the same compound, the activity at 100 µM [1, 4] was 96.5%, the activity at 100 µM [1, 5] was 98.4% and the activity at 100 µM [1, 6] was 99.8%. It also gave a viability at 100 µM [1, 7] of 96.6%, a minimal effective concentration ([1]; iPSC-EC, top concentration 100.00 µM, read-out: endo.cyto.24hr POD) of 100 µM and a minimal effective concentration ([1]; iPSC-EC, top concentration 100.00 µM, read-out: endo.mito.24hr POD) of 100 µM. For the same compound, the minimal effective concentration ([1]; iPSC-EC, top concentration 100.00 µM, read-out: endo.mitoint.24hr POD) was 100 µM, the minimal effective concentration ([1]; iPSC-EC, top concentration 100.00 µM, read-out: endo.nma.24hr POD) was 100 µM and the minimal effective concentration ([1]; iPSC-EC, top concentration 100.00 µM, read-out: endo.tc.24hrs POD) was 100 µM. The activity at 0.01 µM [2, 8] was 102%, the activity at 0.01 µM [2, 9] was 104% and the activity at 0.01 µM [2, 10] was 152%. For the same compound, the activity at 0.01 µM [2, 11] was 139%, the activity at 0.1 µM [2, 8] was 88.6% and the activity at 0.1 µM [2, 9] was 127%. It also gave an activity at 0.1 µM [2, 10] of 93.5%, an activity at 0.1 µM [2, 11] of 88.4% and an activity at 1 µM [2, 8] of 92.1%. The activity at 1 µM [2, 9] was 89.4%, the activity at 1 µM [2, 10] was 106% and the activity at 1 µM [2, 11] was 101%. It also gave an activity at 10 µM [2, 8] of 75.1%, an activity at 10 µM [2, 9] of 68.7% and an activity at 10 µM [2, 10] of 61.4%. The activity at 10 µM [2, 11] was 59.2%, the activity at 100 µM [2, 8] was 83.7% and the activity at 100 µM [2, 9] was 46.7%. The activity at 100 µM [2, 10] was 78.8%, the activity at 100 µM [2, 11] was 79% and the minimal effective concentration ([2]; iPSC-EC tube formation, top concentration 100.00 µM, read-out: endo.mtl.18hr POD) was 100 µM. The minimal effective concentration ([2]; iPSC-EC tube formation, top concentration 100.00 µM, read-out: endo.tlps.18hr POD) was 6.75 µM, the minimal effective concentration ([2]; iPSC-EC tube formation, top concentration 100.00 µM, read-out: endo.tta.18hr POD) was 100 µM and the minimal effective concentration ([2]; iPSC-EC tube formation, top concentration 100.00 µM, read-out: endo.ttl.18hr POD) was 100 µM.
`COc1ccc(-c2ccc(Cl)cc2)cc1` [4'-OMe-PCB 3, 4′-methoxy-4-chlorobiphenyl] showed a minimal effective concentration ([1]; endothelial cells (endo), cyto, read-out: POD endo.cyto.24hr) of 100 µM, a minimal effective concentration ([1]; endothelial cells (endo), mito, read-out: POD endo.mito.24hr) of 100 µM and a minimal effective concentration ([1]; endothelial cells (endo), mitoint, read-out: POD endo.mitoint.24hr) of 20.5 µM. For the same compound, the minimal effective concentration ([1]; endothelial cells (endo), nma, read-out: POD endo.nma.24hr) was 100 µM, the minimal effective concentration ([1]; endothelial cells (endo), tc, read-out: POD endo.tc.24hr) was 100 µM and the minimal effective concentration ([2]; endothelial cells (endo), tube formation mtl, read-out: POD endo.mtl.18hr) was 3.4 µM. For the same compound, the minimal effective concentration ([2]; endothelial cells (endo), tube formation tlps, read-out: POD endo.tlps.18hr) was 12.3 µM, the minimal effective concentration ([2]; endothelial cells (endo), tube formation tta, read-out: POD endo.tta.18hr) was 7.76 µM and the minimal effective concentration ([2]; endothelial cells (endo), tube formation ttl, read-out: POD endo.ttl.18hr) was 7.16 µM.
